The subject of one data set is Bacteria. The experiment in a line: Antimicrobial efficacy of [4]Cl films (same procedure, bacterium not given). The data set is classed as cell-based. On the procedure:
A desired amount of 2-hydrox-2-methy-1-phenyl-propanone (5 wt %), diacrylate crosslinker (EB 130, a cyclic aliphatic diacrylate) and the acrylate-appended phosphonium salt were weighed and combined in screw top vials. The mixture was then insonated at 45° C. for 20 min until the solutions were free of particulate and haze. After cooling to room temperature, the solutions were cast on polyester films and irradiated with UV light three times. Leached films were treated with H2O (Milli-Q) in a wrist action shaker for 4 hours, followed by washing with H2O (2×10 mL) and air drying. Both leached and unleached films were subjected to the antibacterial test (below).
The antibacterial activities of the charged surfaces against Gram-negative bacteria Escherichia coli […] were studied using the antibacterial drop-test. E. coli precultured in 15 mL of nutrient broth (Difco™ BD) at 37° C. for 24 h, was washed by centrifuging at 4000 rpm for 10 min. After removing the supernatant, the cells were washed with phosphate buffered saline (PBS) twice and re-suspended and diluted to approximately 10^6 colony forming units (CFU)/mL in PBS solution. The samples were placed in sterilized Petri dishes. 100 μL of PBS solution with bacteria was added dropwise onto sterilized surfaces until completely covered. The petri dishes were sealed and placed in an incubator at 37° C. with the humidity 46%. After 4 hr, the bacteria were washed from the surface of the sample by using 10 mL PBS in the sterilized Petri dish. From this solution, 100 μL was spread onto solid plate count agar (Difco™ BD). After incubation for 24 h at 37° C., the number of surviving bacterial colonies on the Petri dishes were counted. The results after multiplication with the dilution factor were expressed as CFU per mL. The above experiments were carried out in triplicate for each sample. The percentage of killed bacteria was calculated as [(CFU of initial bacterial suspension−CFUs following surface contact)/CFU of initial bacterial suspension]×100.
As phosphonium content in the films increased, both an increase in surface charge density and bacterial activity was observed. […] The pronounced difference in films containing 25 and 30 wt % is believed to be due to differences in surface energy between EB 130 and the phosphonium salt. The non-polar nature of the crosslinking agent has lower surface energy than that of the phosphonium salt. […] Upon the addition of sufficient phosphonium salt, cations became present at the surface, as detected by the fluorescein dye experiment and exemplified by the increase in antibacterial efficacy. […] Films were prepared and analyzed following the same procedure.

A short description of data set [1]: Density of surface phosphonium cations by UV-vis (fluorescein dye). The data set is classed as physicochemical. On the procedure:
Characterization by FTIR-ATR spectroscopy confirmed the conversion of acrylate functionality post polymerization. Percent cure was determined using a literature procedure. The intensity of the acrylate vibration at 810 cm^−1 was compared to the C═O vibration at 1750 cm^−1 both before and after irradiation. […] The density of surface phosphonium cations was determined by UV-vis spectroscopy as described in a literature procedure.
Characterization by FTIR-ATR spectroscopy confirmed the conversion of acrylate functionality post polymerization. […] The density of surface phosphonium cations was determined by UV-vis spectroscopy as described in a literature procedure^23. […] This assumes a 1:1 ratio of positive and negative charge on the surface.
Before deposition of [Au25L18]^−, the number of accessible charges on the PPF was quantified. A known protocol utilizing fluorescein dye was employed to determine the value for the above system and to relate this quantity back to the percentage of phosphonium monomers that were included in the original formulation.^23 This procedure is commonly used as a characterization technique for films containing surface-bound quaternary salts. […] At 30 wt %, a dramatic increase in the number of quaternary charges was observed (1.5×10^15 cations/cm^2). Increasing the salt content to 37.5 and 47.5 wt % yielded surfaces with 8.2×10^15 and 1.4×10^16 cations/cm^2, respectively. […] Use of low melting phosphonium salts permits formation of a formulation having low viscosity despite the high ion content, allowing for ease of handling and deposition. Use of high melting point organic salts in a similar fashion generates formulations with relatively high viscosities or significant solubility issues, which manifest themselves in poor films. Advantages of the phosphonium-based acrylate monomer in the fabrication of the charged surfaces can thus be seen.

Data set [2] can be described thus: Static water contact angle of UV-cured phosphonium films with alumina microparticles. The data set is classed as physicochemical. How it is done: Solution ^1H, ^19F{^1H} and ^31P{^1H} NMR spectra were recorded on a Varian INOVA 400 MHz spectrometer (^1H; 400.09 MHz, ^31P; 161.82 MHz, ^19F; 376.15 MHz). All samples for ^1H NMR spectroscopy were referenced to the residual protons in the deuterated solvents (^1H: chloroform-d 7.26; acetone-d6 2.05). ^31P{^1H} and ^19F{^1H} NMR spectroscopic chemical shifts were reported relative to external standards (85% H3PO4: 0.00 ppm and CF3C6H5: −63.9 ppm). Mass spectrometry (MS) measurements were recorded in positive and negative ion modes using an electrospray ionization (ESI) Micromass LCT spectrometer. Infrared spectra were recorded using a Bruker Tensor 27 spectrometer from Bruker Optics Inc. Samples were measured by attenuated total reflectance (ATR) infrared spectroscopy, using a zinc selenide crystal. Melting points were determined using a Gallenkamp Variable Heater in air. Scanning electron microscope images of the surfaces were obtained using a Hitachi S-4500 field emission instrument, operated at an electron beam voltage of 10 kV equipped with a Quartz Xone EDX system. AFM was performed on a Park Systems XE-100 in air with a relative humidity of ˜40%. […] Water contact angles were measured on a Kruss DSA 100 with DSA drop shape analysis software. Using an automated dispensing system, static 5 μL droplets of distilled water were deposited in different areas upon the surface. The contact angles were measured on the left and right side of each drop on at least ten droplets, resulting in a minimum of twenty angles per film. The reported contact angle is the average of all measurements.
The general procedure for film preparation and curing was as follows: the chosen phosphonium salt (95%) and 1-hydroxycyclohexylphenylketone (CPK, 5%) were dissolved in acetone. Microparticles (when included) were then added to the solution, the resulting mixture insonated in a sonic bath (Elasmonic E 60H, 100 Watts) for 10 minutes and then applied to pre-treated polyester sheets (DuPont) with a pipette. A #10 wire Meyer rod (Gardco) was used to spread the mixture evenly across the polyester substrate, producing a wet thickness of approximately 25 μm. A UV-curing conveyor (UV Process Supply) was set to allow a time exposure of ˜3 s (UV-light irradiance over this time frame was measured at 760 mJ/cm^2). The substrate with the uncured film was taped to a metal sheet and passed through the UV-conveyor.

A short description of data set [3]: Water contact angle of UV-cured HDDA films containing HFPPS. The data set is classed as physicochemical. The conditions noted are these: UV-cured film. How it is done:
Nuclear Magnetic Resonance (NMR) spectroscopy was conducted on a Varian INOVA 400 MHz spectrometer (^1H, 400.09 MHz, ^31P{^1H} 161.82 MHz, ^19F, 376.15 MHz). All ^1H spectra were referenced relative to tetramethyl silane (CDCl3; ^1H δH=7.26 ppm and CO(CD3)2; ^1H δH=2.04). The chemical shifts for ^31P{H} NMR spectroscopy were referenced using an external standard (85% H3PO4; δP=0). The chemical shifts for ^19F{^1H} NMR spectroscopy were also referenced using an external standard (trifluorotoluene; δF=−63.9 ppm). Infrared spectra were recorded using a Bruker Tensor 27 spectrometer using attenuated total reflectance mode (ATR) using a ZnSe crystal. Sonication of the UV curable formulations was conducted in an E60H Elmasonic sonicator at frequency of 37 kHz using an effective power of 100 W. Deposition of the formulation was performed using a 25-micron Meyer Rod purchased from Gardco on microscope slides purchased from Technologist Choice unless otherwise noted. UV curing was performed using a modified UV curing system purchased from UV Process and Supply Inc. with a mercury bulb. Samples were irradiated with an energy density of 1956 mJ/cm^2 and an irradiance of 1383 mW/cm^2. Water contact angles (WCA) were measured using a Kruss DSA100 Drop Shape Analyzer and analyzed using Drop Shape Analysis. Thermal degradation was determined using Thermal Gravimetric Analysis (TGA) on a Q600 SDT TA instrument. A sample of 5-15 mg was placed in an aluminum cup and heated at a rate of 10° C./min from room temperature to 600° C. under nitrogen atmosphere (100 mL/min). Glass transition temperatures were determined using Differential Scanning calorimetry (DSC) on a DSC Q20 TA instrument. A sample of approximately 10 mg was placed in an aluminum Tzero pan and underwent a heat/cool/heat profile at 10° C./min under nitrogen atmosphere (100 mL/min). Data was acquired from the final heat cycle of the heat/cool/heat profile. Melting points of all HFPS were determined using a Gallenkamp Variable Heater in air. Mass spectrometry was recorded in both positive and negative ion modes using electrospray ionization (ESI) Micromass LCT spectrometer. Elemental analysis (EA) was performed by the Elemental Analysis Laboratory at the Université de Montreal. Time-of-fight Secondary Ion Mass Spectrometry (TOF-SIMS) measurements were performed using an ION-TOF (Gmbh) TOF-SIMS IV equipped with a Bi cluster liquid metal ion source. A 25 keV Bi3^+ cluster primary pulsed ion beam (10 kHz, pulse width 20 ns) was used to bombard the surface to generate secondary ions. The positive or negative secondary ions were extracted from the sample surface, mass separated and detected via a reflectron-type time-of-flight analyser. Depth profiles were obtained by repeating the following cycle: sputtering an area of 500 μm×500 μm on the sample surface with a 3 keV Cs^+ ion beam for 0.5 s followed by, with a delay of 2 s, collecting mass spectra at 128×128 pixels with the Bi3^+ ion beam over an area of 245 μm×245 μm in the center of the sputtered area.
A desired amount of photoinitiator, crosslinker, and phosphonium salt were weighed and combined in screw top vials. The mixture was then insonated at 45° C. for 20 min until the solutions were free of particulate and haze. After cooling to room temperature, the solutions were cast on glass slides and irradiated with UV light three times.

A short description of data set [4]: Solubility/miscibility tests. The data set is classed as physicochemical. On the procedure: Approximately 5-10 mg of compound was added to a test tube followed by the addition of 1.5 mL of solvent followed by 5 seconds of gentle stirring. If dissolution was not observed immediately, the mixture was further stirred and sonicated for 30 seconds. Material was deemed soluble if the resulting solution was free of particulate and haze, determined by visual inspection. […] If solutions remained hazy, they were referred to as emulsion mixtures.

Where [5] appears, read: particle-free UV-cured film of the salt with 5 w % CPK on polyester.
Setting [6] is: film with 50 w % Al2O3 microparticles (±3).

Each structure is given as a SMILES string. Entries after “also recorded” stand apart in the source; their conditions may differ.

With `C=CC(=O)OCCC[P+](CCCC)(CCCC)CCCC.[Cl-]` [[4]Cl, (3-(acryloyloxy)propyl)tributylphosphonium chloride], the “% Bacteria killed” value in the data set with Bacteria (15% [4]Cl film) amounted to 18%; in the data set with Bacteria (20% [4]Cl film), 18%; in the data set on Bacteria (25% [4]Cl film), 71%; with Bacteria (30% [4]Cl film), 71%; in the data set on Bacteria (37.5% [4]Cl film) it was 75%; in the data set with Bacteria (47.5% [4]Cl film), 100%. Besides, the Charge/Unit area in data set [1] (15% [4]Cl film) was 0 ×10^x Y^+/cm^2; in data set [1] (20% [4]Cl film), 5.6 × 10^14 ×10^x Y^+/cm^2; in data set [1] (25% [4]Cl film) it was 3.46 × 10^15 ×10^x Y^+/cm^2; in data set [1] (30% [4]Cl film) it was 9.07 × 10^15 ×10^x Y^+/cm^2; in data set [1] (37.5% [4]Cl film) it was 1.24 × 10^16 ×10^x Y^+/cm^2; in data set [1] (47.5% [4]Cl film), 2.54 × 10^16 ×10^x Y^+/cm^2.
Consider `C=Cc1ccc(C[P+](CCC(F)(F)C(F)(F)C(F)(F)C(F)(F)F)(CCC(F)(F)C(F)(F)C(F)(F)C(F)(F)F)CCC(F)(F)C(F)(F)C(F)(F)C(F)(F)F)cc1.[Cl-]` [[2]Cl], for which the WCA result in data set [2] (setting [5]) is reported as “≈ 80 °”.
`C=Cc1ccc(C[P+](CCC(F)(F)C(F)(F)C(F)(F)C(F)(F)F)(CCC(F)(F)C(F)(F)C(F)(F)C(F)(F)F)CCC(F)(F)C(F)(F)C(F)(F)C(F)(F)F)cc1.O=S(=O)([N-]S(=O)(=O)C(F)(F)F)C(F)(F)F` [[2]NTf2]: the Water contact angle in data set [3] (0.05 wt % in HDDA) is recorded as 80 °; in data set [3] (0.1 wt % in HDDA), 89 °; in data set [3] (0.5 wt % in HDDA), 91 °; in data set [3] (1 wt % in HDDA) it was 92 °; in data set [3] (1.5 wt % in HDDA) it was 92 °. Moreover, the WCA is on record as 141 ° in data set [2] (setting [6]) and “≈ 90 °” in data set [2] (setting [5]).
For `C=Cc1ccc(C[P+](CCC(F)(F)C(F)(F)C(F)(F)C(F)(F)C(F)(F)C(F)(F)F)(CCC(F)(F)C(F)(F)C(F)(F)C(F)(F)C(F)(F)C(F)(F)F)CC(C)CC(C)(C)C)cc1.[Cl-]` (stereo not drawn) [[3]Cl], the “Solubility (in words)” value in data set [4] (chloroform) and in data set [4] (dichloromethane) was “soluble” each time.
`C=Cc1ccc(C[P+](CCC(F)(F)C(F)(F)C(F)(F)C(F)(F)F)(CCC(F)(F)C(F)(F)C(F)(F)C(F)(F)F)CC(C)CC(C)(C)C)cc1.O=S(=O)([N-]S(=O)(=O)C(F)(F)F)C(F)(F)F` (stereo not drawn) [[1]NTf2]: the Water contact angle in data set [3] (0.1 wt % in HDDA) is 82 °; in data set [3] (0.5 wt % in HDDA), 84 °; in data set [3] (1 wt % in HDDA) it was 87 °; in data set [3] (1.5 wt % in HDDA), 87 °. Besides, the “Solubility (in words)” value in data set [4] (chloroform) and in data set [4] (dichloromethane) was “soluble” in each case.
Take `C=Cc1ccc(C[P+](CCC(F)(F)C(F)(F)C(F)(F)C(F)(F)F)(CCC(F)(F)C(F)(F)C(F)(F)C(F)(F)F)CC(C)CC(C)(C)C)cc1.[Cl-]` (stereo not drawn) [[1]Cl]: the WCA is recorded as 88 ° in data set [2] (setting [6]) and “≈ 80 °; also recorded: ≈ 90 °” in data set [2] (setting [5]).
